Test results taken from patent US20260132132A1, “3A,4,5,6-TETRAHYDRO-1 H-PYRAZOLO[3,4-C]PYRIDIN-7(7AH)-ONE DERIVATIVES AS FACTOR XIIA INHIBITORS” (KALVISTA PHARMACEUTICALS LIMITED, priority 2022, published 2026).

Experiments:
[1] = biological target: T1, Human Factor XIIa (hFXIIa) (Homo sapiens, UniProt P00748); test: Determination of Human Factor XIIa (hFXIIa) inhibition, fluorogenic substrate IC50 assay; format: biochemical; conditions: fluorogenic substrate H-DPro-Phe-Arg-AFC at Km, 25° C., read-out: Human FXIIa IC50
T1 construct: purchased Enzyme Research Laboratories
T1 sequence (P00748 373-615 limits assumed): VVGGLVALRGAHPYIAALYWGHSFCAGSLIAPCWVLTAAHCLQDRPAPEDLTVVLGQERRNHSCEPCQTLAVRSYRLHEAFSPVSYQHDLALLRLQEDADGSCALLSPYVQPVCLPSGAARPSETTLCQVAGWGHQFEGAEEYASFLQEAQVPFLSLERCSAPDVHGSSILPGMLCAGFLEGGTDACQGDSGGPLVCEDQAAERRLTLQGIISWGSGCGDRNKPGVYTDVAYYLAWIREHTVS
T1 sequence (P00748 20-372 partner limits assumed): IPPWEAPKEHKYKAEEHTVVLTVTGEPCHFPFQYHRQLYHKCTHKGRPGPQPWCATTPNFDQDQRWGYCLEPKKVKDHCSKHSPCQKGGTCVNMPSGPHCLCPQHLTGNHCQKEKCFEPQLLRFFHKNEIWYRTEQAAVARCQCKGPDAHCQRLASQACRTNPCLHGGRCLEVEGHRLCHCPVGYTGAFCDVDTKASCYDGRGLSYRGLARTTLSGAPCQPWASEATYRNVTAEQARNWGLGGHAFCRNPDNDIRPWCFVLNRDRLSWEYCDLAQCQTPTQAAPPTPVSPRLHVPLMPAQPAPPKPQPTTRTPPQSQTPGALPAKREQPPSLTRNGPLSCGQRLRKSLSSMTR
Experimental: Determination of Human Factor XIIa (hFXIIa) inhibition
The Km for the cleavage of the substrate by hFXIIa was determined by standard transformation of the Michaelis-Menten equation, with subsequent inhibition assays performed at substrate Km concentration.

[2] = biological target: FXa (Homo sapiens, UniProt P00742); test: Related protease inhibition: FXa, fluorogenic substrate; format: biochemical; conditions: fluorogenic substrate at Km, 25° C.; H1-H3 = % activity at 40 μM
Experimental: Human serine protease enzyme Plasma Kallikrein, KLK1, FXa, Plasmin, Thrombin and Trypsin were assayed for enzymatic activity using an appropriate fluorogenic substrate at Km concentration, FXIa at fixed substrate concentration of 100 μM and various concentrations of the test compound.

Sequence of FXa (P00742 235-488 limits assumed): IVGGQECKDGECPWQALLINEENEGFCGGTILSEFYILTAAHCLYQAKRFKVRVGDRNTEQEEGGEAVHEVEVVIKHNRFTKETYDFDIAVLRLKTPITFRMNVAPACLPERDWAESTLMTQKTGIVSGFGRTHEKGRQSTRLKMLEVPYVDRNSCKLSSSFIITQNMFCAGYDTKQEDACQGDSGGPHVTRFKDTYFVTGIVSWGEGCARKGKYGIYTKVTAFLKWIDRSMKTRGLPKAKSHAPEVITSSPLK
Sequence of FXa (P00742 41-179 partner limits assumed): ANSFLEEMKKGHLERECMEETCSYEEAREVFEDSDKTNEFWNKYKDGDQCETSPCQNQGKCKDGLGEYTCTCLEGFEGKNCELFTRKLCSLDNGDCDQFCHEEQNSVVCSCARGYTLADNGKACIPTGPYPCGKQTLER

SMILES	IC50 [1]	IC50 [2]
CN1CCc2ccc(N3CCc4c(C(=O)NC(CO)c5cccnc5)nn(-c5cccc(Cl)c5)c4C3=O)cc2C1=O (stereo not shown) [Example 1187, 1-(3-chlorophenyl)-N-(2-hydroxy-1-(pyridin-3-yl)ethyl)-6-(2-methyl-1-oxo-1,2,3,4-tetrahydroisoquinolin-7-yl)-7-oxo-4,5,6,7-tetrahydro-1H-pyrazolo[3,4-c]pyridine-3-carboxamide]	300 to 1000 nM	> 40000 nM
CC(=O)N1CCc2ccc(N3CCc4c(C(=O)NCc5cnccc5C)nn(-c5cccc(Cl)c5)c4C3=O)cc21 [Example 1188, 6-(1-acetylindolin-6-yl)-1-(3-chlorophenyl)-N-((4-methylpyridin-3-yl)methyl)-7-oxo-4,5,6,7-tetrahydro-1H-pyrazolo[3,4-c]pyridine-3-carboxamide]	100 to 300 nM	> 40000 nM
Cc1cc(C)c(CNC(=O)c2nn(-c3cccc(Cl)c3)c3c2CCN(c2ccc4c(c2)C(=O)N(C)CC4)C3=O)cn1 [Example 1189, 1-(3-chlorophenyl)-N-((4,6-dimethylpyridin-3-yl)methyl)-6-(2-methyl-1-oxo-1,2,3,4-tetrahydroisoquinolin-7-yl)-7-oxo-4,5,6,7-tetrahydro-1H-pyrazolo[3,4-c]pyridine-3-carboxamide]	10 to 100 nM	> 40000 nM
Cc1ncc(CNC(=O)c2nn(-c3cccc(Cl)c3)c3c2CCN(c2ccc4c(c2)C(=O)N(C)CC4)C3=O)s1 [Example 1193, 1-(3-chlorophenyl)-6-(2-methyl-1-oxo-1,2,3,4-tetrahydroisoquinolin-7-yl)-N-((2-methylthiazol-5-yl)methyl)-7-oxo-4,5,6,7-tetrahydro-1H-pyrazolo[3,4-c]pyridine-3-carboxamide]	100 to 300 nM	> 40000 nM
Cc1ncc(CNC(=O)c2nn(-c3cccc(Cl)c3)c3c2CCN(c2ccc4c(c2)C(=O)N(C)CC4)C3=O)o1 [Example 1194, 1-(3-chlorophenyl)-6-(2-methyl-1-oxo-1,2,3,4-tetrahydroisoquinolin-7-yl)-N-((2-methyloxazol-5-yl)methyl)-7-oxo-4,5,6,7-tetrahydro-1H-pyrazolo[3,4-c]pyridine-3-carboxamide]	300 to 1000 nM	> 40000 nM
CN(C)C(=O)c1cccc(N2CCc3c(C(=O)NCC4CC4)nn(-c4cccc(Cl)c4)c3C2=O)c1 [Example 1195, 1-(3-Chlorophenyl)-N-(cyclopropylmethyl)-6-[3-(dimethylcarbamoyl)phenyl]-7-oxo-4,5-dihydropyrazolo[3,4-c]pyridine-3-carboxamide]	3000 to 10000 nM	> 40000 nM
CN1CCc2ccc(N3CCc4c(C(=O)NC5CCOC5(C)C)nn(-c5cccc(Cl)c5)c4C3=O)cc2C1=O (stereo not shown) [Example 1197, 1-(3-chlorophenyl)-N-(2,2-dimethyltetrahydrofuran-3-yl)-6-(2-methyl-1-oxo-1,2,3,4-tetrahydroisoquinolin-7-yl)-7-oxo-4,5,6,7-tetrahydro-1H-pyrazolo[3,4-c]pyridine-3-carboxamide]	300 to 1000 nM	> 40000 nM
CN1CCc2ccc(N3CCc4c(C(=O)NCC5CCOC5)nn(-c5cccc(Cl)c5)c4C3=O)cc2C1=O (stereo not shown) [Example 1198, 1-(3-chlorophenyl)-6-(2-methyl-1-oxo-1,2,3,4-tetrahydroisoquinolin-7-yl)-7-oxo-N-((tetrahydrofuran-3-yl)methyl)-4,5,6,7-tetrahydro-1H-pyrazolo[3,4-c]pyridine-3-carboxamide]	300 to 1000 nM	> 40000 nM
Cc1cc(CNC(=O)c2nn(-c3cccc(Cl)c3)c3c2CCN(c2ccc4c(c2)C(=O)N(C)CC4)C3=O)nn1C [Example 1199, 1-(3-chlorophenyl)-N-((1,5-dimethyl-1H-pyrazol-3-yl)methyl)-6-(2-methyl-1-oxo-1,2,3,4-tetrahydroisoquinolin-7-yl)-7-oxo-4,5,6,7-tetrahydro-1H-pyrazolo[3,4-c]pyridine-3-carboxamide]	100 to 300 nM	10000 to 40000 nM
Cc1cc(CNC(=O)c2nn(-c3cccc(Cl)c3)c3c2CCN(c2ccc4c(c2)C(=O)N(C)CC4)C3=O)n[nH]1 [Example 1200, 1-(3-chlorophenyl)-6-(2-methyl-1-oxo-1,2,3,4-tetrahydroisoquinolin-7-yl)-N-((5-methyl-1H-pyrazol-3-yl)methyl)-7-oxo-4,5,6,7-tetrahydro-1H-pyrazolo[3,4-c]pyridine-3-carboxamide]	100 to 300 nM	10000 to 40000 nM
Cc1cncc(CNC(=O)c2nn(-c3cccc(Cl)c3)c3c2CCN(c2ccc4c(c2)C(=O)N(C)CC4)C3=O)c1 [Example 1201, 1-(3-chlorophenyl)-6-(2-methyl-1-oxo-1,2,3,4-tetrahydroisoquinolin-7-yl)-N-((5-methylpyridin-3-yl)methyl)-7-oxo-4,5,6,7-tetrahydro-1H-pyrazolo[3,4-c]pyridine-3-carboxamide]	100 to 300 nM	10000 to 40000 nM
CN1CCc2ccc(N3CCc4c(C(=O)NCc5cccnn5)nn(-c5cccc(Cl)c5)c4C3=O)cc2C1=O [Example 1202, 1-(3-chlorophenyl)-6-(2-methyl-1-oxo-1,2,3,4-tetrahydroisoquinolin-7-yl)-7-oxo-N-(pyridazin-3-ylmethyl)-4,5,6,7-tetrahydro-1H-pyrazolo[3,4-c]pyridine-3-carboxamide]	300 to 1000 nM	> 40000 nM
CN1CCc2ccc(N3CCc4c(C(=O)NC5CCOCC5)nn(-c5cccc(Cl)c5)c4C3=O)cc2C1=O [Example 1203, 1-(3-chlorophenyl)-6-(2-methyl-1-oxo-1,2,3,4-tetrahydroisoquinolin-7-yl)-7-oxo-N-(tetrahydro-2H-pyran-4-yl)-4,5,6,7-tetrahydro-1H-pyrazolo[3,4-c]pyridine-3-carboxamide]	100 to 300 nM	> 40000 nM

Results, then the compound that gave them:

IC50 [1]	IC50 [2]	SMILES
100 to 300 nM	> 40000 nM	O=C(NCc1cccnn1)c1nn(-c2cccc(Cl)c2)c2c1CCN(c1ccc3c(c1)CN(CCO)CC3)C2=O [Example 1204, 1-(3-chlorophenyl)-6-(2-(2-hydroxyethyl)-1,2,3,4-tetrahydroisoquinolin-7-yl)-7-oxo-N-(pyridazin-3-ylmethyl)-4,5,6,7-tetrahydro-1H-pyrazolo[3,4-c]pyridine-3-carboxamide]
10000 to 40000 nM	> 40000 nM	Cc1cc(CNC(=O)c2nn(-c3cccc(Cl)c3)c3c2CCN(c2ccc4c(c2)CCN(C)C4=O)C3=O)nn1C [Example 1205, 1-(3-chlorophenyl)-N-((1,5-dimethyl-1H-pyrazol-3-yl)methyl)-6-(2-methyl-1-oxo-1,2,3,4-tetrahydroisoquinolin-6-yl)-7-oxo-4,5,6,7-tetrahydro-1H-pyrazolo[3,4-c]pyridine-3-carboxamide]
1000 to 3000 nM	> 40000 nM	Cc1cc(CNC(=O)c2nn(-c3cccc(Cl)c3)c3c2CCN(c2ccc4c(c2)C(=O)N(C)C4)C3=O)nn1C [Example 1206, 1-(3-chlorophenyl)-N-((1,5-dimethyl-1H-pyrazol-3-yl)methyl)-6-(2-methyl-3-oxoisoindolin-5-yl)-7-oxo-4,5,6,7-tetrahydro-1H-pyrazolo[3,4-c]pyridine-3-carboxamide]
3000 to 10000 nM	> 40000 nM	CN1C(=O)CCc2ccc(N3CCc4c(C(=O)NCC5CC5)nn(-c5cccc(Cl)c5)c4C3=O)cc21 [Example 1207, 1-(3-chlorophenyl)-N-(cyclopropylmethyl)-6-(1-methyl-2-oxo-1,2,3,4-tetrahydroquinolin-7-yl)-7-oxo-4,5,6,7-tetrahydro-1H-pyrazolo[3,4-c]pyridine-3-carboxamide]
1000 to 3000 nM	10000 to 40000 nM	Cc1cc(CNC(=O)c2nn(-c3cccc(Cl)c3)c3c2CCN(c2ccc4c(c2)N(C)C(=O)CC4)C3=O)nn1C [Example 1208, 1-(3-chlorophenyl)-N-((1,5-dimethyl-1H-pyrazol-3-yl)methyl)-6-(1-methyl-2-oxo-1,2,3,4-tetrahydroquinolin-7-yl)-7-oxo-4,5,6,7-tetrahydro-1H-pyrazolo[3,4-c]pyridine-3-carboxamide]
100 to 300 nM	> 40000 nM	CCCN1CCc2ccc(N3CCc4c(C(=O)NCc5cnccc5C)nn(-c5cccc(Cl)c5)c4C3=O)cc2C1=O [Example 1209, 1-(3-chlorophenyl)-N-((4-methylpyridin-3-yl)methyl)-7-oxo-6-(1-oxo-2-propyl-1,2,3,4-tetrahydroisoquinolin-7-yl)-4,5,6,7-tetrahydro-1H-pyrazolo[3,4-c]pyridine-3-carboxamide]
100 to 300 nM	> 40000 nM	CCCN1CCc2ccc(N3CCc4c(C(=O)NCc5cc(C)n(C)n5)nn(-c5cccc(Cl)c5)c4C3=O)cc2C1=O [Example 1210, 1-(3-chlorophenyl)-N-((1,5-dimethyl-1H-pyrazol-3-yl)methyl)-7-oxo-6-(1-oxo-2-propyl-1,2,3,4-tetrahydroisoquinolin-7-yl)-4,5,6,7-tetrahydro-1H-pyrazolo[3,4-c]pyridine-3-carboxamide]
